Laboratory results as given in patent US20240262803A1, “COMPOUNDS, COMPOSITIONS AND METHODS OF TREATING DISORDERS” (Chungdu Anticancer Bioscience Ltd, priority 2021, published 2024).
Where two headings read alike, the source gives them in different places.

Tests used:
[1] = tested on: RPEMYC^H2B-GFP cells; assay: Mechanism-informed phenotypic screening assay (mitotic arrest, polyploidy; GE IN-Cell Analyzer 2000); type: cell-based; settings: 20 nM to 20 μM, 24, 48 or 72 hours, read-out: Min. Effective conc. for polyploidy (≥5%)
Method in brief: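 RPEMYC^H2B-GFP cells expressing Histone 2B-EGFP were treated with compounds at 20 nM to 20 μM. Mitotic arrest and DNA content were imaged at 24, 48 or 72 h. Minimal effective concentrations eliciting polyploidy are given as letter bins.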

[2] = tested on: lung cancer cell line NCI-H23; assay: MTT assay of cellular proliferation, NCI-H23; type: cell-based; settings: Homo sapiens, read-out: EC50: Concentration that inhibits 50% of proliferation
Method in brief: (§1)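 EC50 values come from optical density at 570 nm of solubilized MTT formazan, added for 3˜4 h after compound exposure. Cells in DMEM with 5% FBS were treated at 1 nM to 10 μM once 20˜30% confluent.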

[3] = tested on: lung cancer cell line A549; assay: MTT assay of cellular proliferation, A549; type: cell-based; settings: Homo sapiens, read-out: EC50: Concentration that inhibits 50% of proliferation
Method in brief: as §1

[4] = tested on: colon cancer cell line HCT116; assay: MTT assay of cellular proliferation, HCT116; type: cell-based; settings: Homo sapiens, HCT-116, read-out: EC50: Concentration that inhibits 50% of proliferation
Method in brief: as §1

[5] = tested on: colon cancer cell line SW460; assay: MTT assay of cellular proliferation, SW460; type: cell-based; settings: Homo sapiens, SW480; read-out: EC50: Concentration that inhibits 50% of proliferation
Method in brief: as §1

[6] = tested on: breast cancer cell line MDA-MB-231; assay: MTT assay of cellular proliferation, MDA-MB-231; type: cell-based; settings: Homo sapiens, read-out: EC50: Concentration that inhibits 50% of proliferation
Method in brief: as §1

[7] = tested on: gastric cancer cell line NCI-N87; assay: MTT assay of cellular proliferation, NCI-N87; type: cell-based; settings: Homo sapiens, read-out: EC50: Concentration that inhibits 50% of proliferation
Method in brief: as §1

[8] = tested on: cervical cancer cell line Hela; assay: MTT assay of cellular proliferation, Hela; type: cell-based; settings: Homo sapiens, read-out: EC50: Concentration that inhibits 50% of proliferation
Method in brief: as §1

[9] = tested on: liver cancer cell line T2 HCC; assay: MTT assay of cellular proliferation, T2 HCC; type: cell-based; settings: Mus musculus, read-out: EC50: Concentration that inhibits 50% of proliferation
Method in brief: as §1

[10] = tested on: human lung adenocarcinoma cell line NCI-H23; assay: Xenograft assay, NCI-H23; type: in vivo; settings: NCI-H23 subcutaneous xenograft, Nu/Nu mice, oral gavage twice a day for 9 days, FIG. 3
Procedure: (§2) Xenografts were initiated in immunocompromised (Nu/Nu) mice with the human lung adenocarcinoma cell line NCI-H23 (FIG. 3) and the human colon cancer cell line HCT116 (FIG. 4). Five million cells were injected subcutaneously into each mouse and treatment was initiated when the average tumor volumes reached 150 mm3 (n=5/groups). Tumor-bearing mice were randomized into different groups to receive either vehicle or indicated compounds. The compounds were administered through oral gavage twice a day for 9 days. Day 0 on the x-axis indicates the day that treatment was initiated. For these experiments, all compounds were first dissolved in DMSO and then diluted 1:10 into a mixture containing 50% PEG300 and 49% PBS, 1% Tween 80, pH2.2. 100 ul of drug solution was administered with each dose. Tumor volumes were determined once every three days and are calculated from digital caliper raw data by using the formula: Volume (mm3)=(L×W^2)/2. The value W (Width) is the smaller of two perpendicular tumor axes and the value L (Length) is the larger of two perpendicular axes. Mean tumor volume growth curves and means are calculated for each treatment group.

[11] = tested on: human colon cancer cell line HCT116; assay: Xenograft assay, HCT116; type: in vivo; settings: HCT116 subcutaneous xenograft, Nu/Nu mice, oral gavage twice a day for 9 days, FIG. 4
Procedure: as §2

[12] = tested on: lung cancer cell line NCI-H23; assay: Minimal effective concentration that elicits polyploidy, NCI-H23; type: cell-based; settings: Homo sapiens, read-out: MECP: Minimal effective concentration that elicits polyploidy
[13] = tested on: lung cancer cell line A549; assay: Minimal effective concentration that elicits polyploidy, A549; type: cell-based; settings: Homo sapiens, read-out: MECP: Minimal effective concentration that elicits polyploidy
[14] = tested on: colon cancer cell line HCT116; assay: Minimal effective concentration that elicits polyploidy, HCT116; type: cell-based; settings: Homo sapiens, HCT-116, read-out: MECP: Minimal effective concentration that elicits polyploidy
[15] = tested on: SW480; assay: Minimal effective concentration that elicits polyploidy, SW480; type: cell-based; settings: Homo sapiens, read-out: MECP: Minimal effective concentration that elicits polyploidy
[16] = tested on: breast cancer cell line MDA-MB-231; assay: Minimal effective concentration that elicits polyploidy, MDA-MB-231; type: cell-based; settings: Homo sapiens, read-out: MECP: Minimal effective concentration that elicits polyploidy
[17] = tested on: cervical cancer cell line Hela; assay: Minimal effective concentration that elicits polyploidy, Hela; type: cell-based; settings: Homo sapiens, read-out: MECP: Minimal effective concentration that elicits polyploidy
[18] = tested on: gastric cancer cell line NCI-N87; assay: Minimal effective concentration that elicits polyploidy, NCI-N87; type: cell-based; settings: Homo sapiens, read-out: MECP: Minimal effective concentration that elicits polyploidy
[19] = tested on: liver cancer cell line T2 HCC; assay: Minimal effective concentration that elicits polyploidy, T2 HCC; type: cell-based; settings: Mus musculus, read-out: MECP: Minimal effective concentration that elicits polyploidy
[20] = tested on: RPEMYC^H2B-GFP cells; assay: Mechanism-informed phenotypic screening assay (mitotic arrest, polyploidy; GE IN-Cell Analyzer 2000); type: cell-based; settings: 20 nM to 20 μM, 24, 48 or 72 hours, read-out: Mitotic Arrest (≥5%)

EC50 [2]: 0.001 to 1 µM
EC50 [3]: 0.001 to 1 µM
EC50 [4]: 0.001 to 1 µM
EC50 [5]: 0.001 to 1 µM
EC50 [6]: 0.001 to 1 µM
EC50 [7]: 0.001 to 1 µM
EC50 [8]: 0.001 to 1 µM
EC50 [9]: 0.001 to 1 µM
Compound: COc1cc(OC)cc(Oc2ncccc2-c2ccnc(OC)c2)c1 [Compound 32, 2-(3,5-dimethoxyphenoxy)-2′-methoxy-3,4′-bipyridine]
minimal effective concentration [1]: 1 µM
tumor growth (tumor volume) [10]: suppressing the tumor growth
tumor growth (tumor volume) [11]: suppressing the tumor growth
minimal effective concentration [12]: 0.001 to 1 µM
minimal effective concentration [13]: 0.001 to 1 µM
minimal effective concentration [14]: 0.001 to 1 µM
minimal effective concentration [15]: 0.001 to 1 µM
minimal effective concentration [16]: 0.001 to 1 µM
minimal effective concentration [17]: 0.001 to 1 µM
minimal effective concentration [18]: 0.001 to 1 µM
minimal effective concentration [19]: 0.001 to 1 µM
minimal effective concentration [20]: 1 µM
